Experimental data: the NIST ThermoML archive (doi:10.1021/je900478c)

Columns and labels:
[1] = 101 kPa, Liquid; for viscosity: Capillary tube (Ostwald / Ubbelohde) method
[2] = refractive index (Na D-line) (dimensionless); settings: 101.33 kPa, Liquid, Standard Abbe refractometry
[3] = xn = mol fraction of the nth substance listed; settings: 101 kPa, Liquid, x2 = 0; for viscosity: Capillary tube (Ostwald / Ubbelohde) method
[4] = refractive index (Na D-line) (dimensionless); xn = mol fraction of the nth substance listed; settings: 101 kPa, Liquid, Standard Abbe refractometry, x2 = 0

CCCCCCOCCOCCO [2-(2-hexyloxyethoxy)ethanol]
[1]
Settings | mass density [kg/m3]
283.15 K | 942.09
288.15 K | 938.05
293.15 K | 934.06
303.15 K | 926.08
313.15 K | 918.17

CCCCOCCO [2-butoxyethan-1-ol]
Settings | mass density, [1] [kg/m3] | refractive index, [2] | viscosity, [1] [mPa·s]
283.15 K | 909.49 | 1.4226 | 4.46
293.15 K | 901.18 | 1.4196 | 3.288
303.15 K | 892.68 | 1.4157 | 2.499
313.15 K | 884.21 | 1.41139 | 1.946
323.15 K | 875.6 | 1.40701 | 1.543

CCCCOCCOCCO [3,6-dioxa-1-decanol]
Settings | refractive index, 283.15 K | refractive index, 293.15 K | refractive index, 303.15 K | refractive index, 313.15 K | refractive index, 323.15 K | viscosity, 283.15 K [mPa·s] | viscosity, 293.15 K [mPa·s] | viscosity, 303.15 K [mPa·s] | viscosity, 313.15 K [mPa·s] | viscosity, 323.15 K [mPa·s]
[1] | – | – | – | – | – | 8.301 | 5.86 | 4.323 | 3.295 | 2.58
[2] | 1.4347 | 1.4312 | 1.42805 | 1.424 | 1.4194 | – | – | – | – | –

[1], Vibrating tube method
Settings | mass density [kg/m3]
283.15 K | 962.57
293.15 K | 954.16
303.15 K | 945.74
313.15 K | 937.35
323.15 K | 928.85

O [water] + CCCCCCOCCOCCO
Settings | mass density [kg/m3]
[3], 283.15 K | 999.7

O [water] + CCCCOCCO
Settings | mass density, [3] [kg/m3] | refractive index, [4] | viscosity, [3] [mPa·s]
283.15 K | 999.7 | 1.33369 | 1.309
293.15 K | – | 1.33299 | 1.003
303.15 K | – | 1.33194 | 0.7983
313.15 K | – | 1.33061 | 0.6543
323.15 K | 988.04 | 1.32904 | 0.5492

O [water] + CCCCOCCOCCO
Settings | refractive index, 283.15 K | refractive index, 293.15 K | refractive index, 303.15 K | refractive index, 313.15 K | refractive index, 323.15 K | viscosity, 283.15 K [mPa·s] | viscosity, 293.15 K [mPa·s] | viscosity, 303.15 K [mPa·s] | viscosity, 313.15 K [mPa·s] | viscosity, 323.15 K [mPa·s]
[3] | – | – | – | – | – | 1.309 | 1.003 | 0.7983 | 0.6543 | 0.5492
[4] | 1.33369 | 1.33299 | 1.33194 | 1.33061 | 1.32904 | – | – | – | – | –

[3], Vibrating tube method
Settings | mass density [kg/m3]
283.15 K | 999.7
323.15 K | 988.04
